# Tests used:
# Format in all cases: functional, cell-based
# [1] = Cytotoxicity against human MDA-MB-231 cells assessed as cell growth inhibition by MTT assay
# [2] = Cytotoxicity against human HeLa cells assessed as cell growth inhibition by MTT assay
# [3] = Cytotoxicity against human DU145 cells assessed as cell growth inhibition by MTT assay; settings: DU-145
# [4] = Cytotoxicity against human HepG2 cells assessed as cell growth inhibition by MTT assay
SMILES,IC50 [1] [µM],IC50 [2] [µM],IC50 [3] [µM],IC50 [4] [µM]
O=C(N/N=C/c1ccccc1)c1ccc(C(F)(F)F)nc1NCc1ccco1,26.6,31.4,30.5,32.2
O=c1[nH]cc(F)c(=O)[nH]1 [FLUOROURACIL],1.8,1.9,1.6,1.3
COc1ccc(-c2nnc(-c3ccc(C(F)(F)F)nc3N)o2)cc1,13.5,14.8,10.7,11.2
CCc1nnc(-c2ccc(C(F)(F)F)nc2Nc2cccc(F)c2)o1,18.7,20.9,22.2,26.4
FC(F)(F)c1ccc(-c2nnc(-c3ccco3)o2)c(NCc2ccco2)n1,8.7,9.8,8.2,9.5
CCc1nnc(-c2ccc(C(F)(F)F)nc2Nc2cc(OC)c(OC)c(OC)c2)o1,20.5,23.3,22.1,19.9
CCCc1nnc(-c2ccc(C(F)(F)F)nc2Nc2cccc(F)c2)o1,13.5,19.6,18.9,17.7

# Source: ChEMBL document CHEMBL3856238, “Synthesis of novel nicotinohydrazide and (1,3,4-oxadiazol-2-yl)-6-(trifluoromethyl)pyridine derivatives as potential anticancer agents” (Bioorg Med Chem Lett, 2016)
